Legend:
barnyardgrass [1] = experiment: Test C preemergence; format: in vivo, Echinochloa crusgalli
Outline: (§1)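 Visual injury ratings on a 0–100 scale (100 = complete control) were made against untreated controls 10 days after treatment in the greenhouse. Compounds, formulated with surfactant in non-phytotoxic solvent, were sprayed on soil preemergence or onto one- to two-leaf plants 2–10 cm tall postemergence.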

blackgrass [2] = experiment: Test C preemergence; format: in vivo, Alopecurus myosuroides
Outline: as §1

corn [3] = experiment: Test C preemergence; format: in vivo, Zea mays
Outline: as §1

green foxtail [4] = experiment: Test C preemergence; format: in vivo, Setaria viridis
Outline: as §1

kochia [5] = experiment: Test C preemergence; format: in vivo, Bassia scoparia
Outline: as §1

oat, wild [6] = experiment: Test C preemergence; format: in vivo, Avena fatua
Outline: as §1

pigweed, palmer [7] = experiment: Test C preemergence; format: in vivo, Amaranthus palmeri
Outline: as §1

ragweed [8] = experiment: Test C preemergence; format: in vivo, Ambrosia artemisiifolia
Outline: as §1

ryegrass, Italian [9] = experiment: Test C preemergence; format: in vivo, Lolium multiflorum
Outline: as §1

soybean [10] = experiment: Test C preemergence; format: in vivo, Glycine max
Outline: as §1

wheat [11] = experiment: Test C preemergence; format: in vivo, Triticum aestivum
Outline: as §1

barnyardgrass [12] = experiment: Test C postemergence; format: in vivo, Echinochloa crusgalli; settings: 10 days, 0 to 100 scale (0 no effect, 100 complete control)
Outline: as §1

blackgrass [13] = experiment: Test C postemergence; format: in vivo, Alopecurus myosuroides; settings: 10 days, 0 to 100 scale (0 no effect, 100 complete control)
Outline: as §1

corn [14] = experiment: Test C postemergence; format: in vivo, Zea mays; settings: 10 days, 0 to 100 scale (0 no effect, 100 complete control)
Outline: as §1

green foxtail [15] = experiment: Test C postemergence; format: in vivo, Setaria viridis; settings: 10 days, 0 to 100 scale (0 no effect, 100 complete control)
Outline: as §1

kochia [16] = experiment: Test C postemergence; format: in vivo, Bassia scoparia; settings: 10 days, 0 to 100 scale (0 no effect, 100 complete control)
Outline: as §1

oat, wild [17] = experiment: Test C postemergence; format: in vivo, Avena fatua; settings: 10 days, 0 to 100 scale (0 no effect, 100 complete control)
Outline: as §1

pigweed, palmer [18] = experiment: Test C postemergence; format: in vivo, Amaranthus palmeri; settings: 10 days, 0 to 100 scale (0 no effect, 100 complete control)
Outline: as §1

ragweed [19] = experiment: Test C postemergence; format: in vivo, Ambrosia artemisiifolia; settings: 10 days, 0 to 100 scale (0 no effect, 100 complete control)
Outline: as §1

ryegrass, Italian [20] = experiment: Test C postemergence; format: in vivo, Lolium multiflorum; settings: 10 days, 0 to 100 scale (0 no effect, 100 complete control)
Outline: as §1

soybean [21] = experiment: Test C postemergence; format: in vivo, Glycine max; settings: 10 days, 0 to 100 scale (0 no effect, 100 complete control)
Outline: as §1

wheat [22] = experiment: Test C postemergence; format: in vivo, Triticum aestivum; settings: 10 days, 0 to 100 scale (0 no effect, 100 complete control)
Outline: as §1

galium = experiment: Test C postemergence; format: in vivo, Galium aparine; settings: 10 days, 0 to 100 scale (0 no effect, 100 complete control)
Outline: as §1

horseweed = experiment: Test C postemergence; format: in vivo, Erigeron canadensis; settings: 10 days, 0 to 100 scale (0 no effect, 100 complete control)
Outline: as §1

barnyardgrass [23] = experiment: Test D flooded paddy test; format: in vivo, Echinochloa crus-galli; settings: 250 g ai/ha, applied to paddy water, visual rating after 13 to 14 days, scale 0 to 100 (0 no effect, 100 complete control)
Outline: (§2)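 Rating scale 0–100 (0 no effect, 100 complete control), visual, versus controls. Readout at 13–14 days after in-water application to 2-leaf plants in pots flooded 3 cm deep.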

ducksalad = experiment: Test D flooded paddy test; format: in vivo, Heteranthera limosa; settings: 250 g ai/ha, applied to paddy water, visual rating after 13 to 14 days, scale 0 to 100 (0 no effect, 100 complete control)
Outline: as §2

rice = experiment: Test D flooded paddy test; format: in vivo, Oryza sativa; settings: 250 g ai/ha, applied to paddy water, visual rating after 13 to 14 days, scale 0 to 100 (0 no effect, 100 complete control)
Outline: as §2

sedge, umbrella = experiment: Test D flooded paddy test; format: in vivo, Cyperus difformis; settings: 250 g ai/ha, applied to paddy water, visual rating after 13 to 14 days, scale 0 to 100 (0 no effect, 100 complete control)
Outline: as §2

[24] = 500 g ai/ha, preemergence, 0 to 100 scale (0 no effect, 100 complete control)
[25] = Preemergence, 125 g ai/ha, 0 to 100 scale, 0 no effect, 100 complete control

COC[C@H]1CN(C(=O)c2cc(-n3cnc(C(C)(C)C)n3)cc3c2OCCO3)c2cccc(Cl)c2O1 [Compound 382]
Barnyardgrass plant response rating (barnyardgrass [1]; [24]): 100 | Plant response rating, Barnyardgrass (barnyardgrass [1]; [25]): 50 | Blackgrass plant response rating (blackgrass [2]; [24]): 50 | Plant response rating, Blackgrass (blackgrass [2]; [25]): 10 | Corn plant response rating (corn [3]; [24]): 70 | Plant response rating, Corn (corn [3]; [25]): 10 | Foxtail, Green plant response rating (green foxtail [4]; [24]): 100 | Plant response rating, Foxtail, Green (green foxtail [4]; [25]): 90 | Kochia plant response rating (kochia [5]; [24]): 100 | Plant response rating, Kochia (kochia [5]; [25]): 80 | Oat, Wild plant response rating (oat, wild [6]; [24]): 80 | Plant response rating, Oat, Wild (oat, wild [6]; [25]): 20 | Pigweed, Palmer plant response rating (pigweed, palmer [7]; [24]): 100 | Plant response rating, Pigweed, Palmer (pigweed, palmer [7]; [25]): 100 | Ragweed plant response rating (ragweed [8]; [24]): 100 | Plant response rating, Ragweed (ragweed [8]; [25]): 60 | Ryegrass, Italian plant response rating (ryegrass, Italian [9]; [24]): 100 | Plant response rating, Ryegrass, Italian (ryegrass, Italian [9]; [25]): 80 | Soybean plant response rating (soybean [10]; [24]): 80 | Plant response rating, Soybean (soybean [10]; [25]): 60 | Wheat plant response rating (wheat [11]; [24]): 40 | Plant response rating, Wheat (wheat [11]; [25]): 0 | Plant response rating, Barnyardgrass (barnyardgrass [12]; 500 g ai/ha, postemergence): 50 | Plant response rating, Barnyardgrass (barnyardgrass [12]; Postemergence, 125 g ai/ha): 30 | Plant response rating, Blackgrass (blackgrass [13]; 500 g ai/ha, postemergence): 40 | Plant response rating, Blackgrass (blackgrass [13]; Postemergence, 125 g ai/ha): 10 | Plant response rating, Corn (corn [14]; 500 g ai/ha, postemergence): 50 | Plant response rating, Corn (corn [14]; Postemergence, 125 g ai/ha): 20 | Plant response rating, Foxtail, Green (green foxtail [15]; 500 g ai/ha, postemergence): 60 | Plant response rating, Foxtail, Green (green foxtail [15]; Postemergence, 125 g ai/ha): 20 | Plant response rating, Kochia (kochia [16]; 500 g ai/ha, postemergence): 100 | Plant response rating, Kochia (kochia [16]; Postemergence, 125 g ai/ha): 90 | Plant response rating, Oat, Wild (oat, wild [17]; 500 g ai/ha, postemergence): 0 | Plant response rating, Oat, Wild (oat, wild [17]; Postemergence, 125 g ai/ha): 0 | Plant response rating, Pigweed, Palmer (pigweed, palmer [18]; 500 g ai/ha, postemergence): 100 | Plant response rating, Pigweed, Palmer (pigweed, palmer [18]; Postemergence, 125 g ai/ha): 100 | Plant response rating, Ragweed (ragweed [19]; 500 g ai/ha, postemergence): 90 | Plant response rating, Ragweed (ragweed [19]; Postemergence, 125 g ai/ha): 90 | Plant response rating, Ryegrass, Italian (ryegrass, Italian [20]; 500 g ai/ha, postemergence): 60 | Plant response rating, Ryegrass, Italian (ryegrass, Italian [20]; Postemergence, 125 g ai/ha): 40 | Plant response rating, Soybean (soybean [21]; 500 g ai/ha, postemergence): 100 | Plant response rating, Soybean (soybean [21]; Postemergence, 125 g ai/ha): 100 | Plant response rating, Wheat (wheat [22]; 500 g ai/ha, postemergence): 40 | Plant response rating, Wheat (wheat [22]; Postemergence, 125 g ai/ha): 20 | Plant response rating, Galium (galium; 500 g ai/ha, postemergence): 100 | Plant response rating, Galium (galium; Postemergence, 125 g ai/ha): 100 | Plant response rating, Horseweed (horseweed; 500 g ai/ha, postemergence): 50 | Plant response rating, Horseweed (horseweed; Postemergence, 125 g ai/ha): 50 | Plant response rating, Barnyardgrass (Flood) (barnyardgrass [23]): 50 | Plant response rating, Ducksalad (Flood) (ducksalad): 15 | Plant response rating, Rice (Flood) (rice): 15 | Plant response rating, Sedge, Umbrella (Flood) (sedge, umbrella): 25

Reference: patent US20260262643A1, “HERBICIDAL BENZOXAZINES” (FMC CORPORATION, priority 2022, published 2026)
